Legend:
liposarcoma cell lines = experiment: IncuCyte cell proliferation assay (growth reducing/arresting concentration); assay type: cell-based, human; conditions: complete growth arrest between 96 and 120h
Method: The cellular proliferation rate was measured using the IncuCyte ZOOM live-cell imaging system (Essen Bioscience, Birmingham, UK) with the corresponding software application (version 2013BRev1). First the growth rate for each cell line was established to estimate the seeding numbers of cells corresponding to 15-30% of confluence at the start of the experiment and maximum 70% after 72h. The drug treatment was initiated approximately 18h after seeding. The proliferation rate was measured as cell confluence over time through the acquisition of photographs under phase contrast every third hour for the entire duration of the drug treatment. During the drug treatment, media were not changed, and cells were not split. The growth reducing drug concentration was defined as lowest drug concentration leading to significant decrease of cellular growth between 40 and 72h after start of treatment. To determine that concentration, plots were generated using IncuCyte software and differences in growth between 40 and 72h were calculated using least-square means with the '[…] package version 1.4.3 [25]. Growth arresting concentrations were defined as minimal drug concentration under which cell confluence between 96 and 120h increases by less than 3%. Though growth arrest occurred much earlier, these time points ensured that the growth arrest is a stable phenomenon. These growth arresting concentrations were used for drug withdrawal, apoptosis and cell cycle experiments. All the data were verified with the plots. The presented values correspond to median values from two ([…], all compounds) to five (all cell lines, triptolide) biological replicates.

[1] = test system: normal cells (blood, bone marrow from healthy donors, iMSC#3); experiment: Toxicity towards normal cells ex vivo, ATP viability 72h; assay type: cell-based, human; conditions: 1 nM to 10 μM
Method: 349 compounds from anti-cancer Selleck Chemical library were pre-aliquoted at five concentrations, increasing in 10-fold steps from 1 nM to 10 μM, in 384-well plates using an Echo Liquid Handler. Each plate also contained positive (benzethonium chloride, BzCl) and negative (DMSO only) controls. Additional drugs were added manually to the same plates at the same concentration range. Cells were seeded directly into the plates containing the drugs. After 72h viability was assessed through levels of ATP, with Cell Titer Glow assay (Promega, Wisconsin, United States) and luminescence quantified using a […]. Data from drug screens were analyzed with R version 3.4.0 (R_Core_Team, 2017) normalized to median positive (BzCl) and median negative (DMSO) controls using formula: (drug-BzCl)/(DMSO–BzCl), with total viability calculated as the area under the curve over all five drug concentrations, adjusted using qualitatively constrained quantile smoothing splines, R package ‘cobs’ version 1.3–3 [22]. […] For two cases where the z’-factor was below 0.5, strictly standardized mean difference (SSMD) was additionally calculated, giving the population value (β) of SSMD -4 and -5, respectively, indicating good quality. […]

[2] = test system: advanced solid malignancies or lymphoma; conditions: cited from earlier work
[3] = test system: all cancer cell lines (NCI-60); design: method as in NCI-60 project; conditions: ref NCI-60 project; cited from earlier work

Structure (SMILES) | concentration arresting the majority of the cell lines (liposarcoma cell lines) [nM] | toxicity towards normal cells compared with liposarcoma cell lines [1] | patients with partial response or stable disease ([2]; heavily pretreated patients with solid tumors) [%] | IC50 [3] [nM] | patients with complete or partial responses ([2]; phase I, advanced solid malignancies or lymphoma) [%]
O=C(/C=C/c1cccnc1)NCCCCC1CCN(C(=O)c2ccccc2)CC1 [APO866] | 10 |  |  |  | 
Cn1cc(CNCC2CCN(c3ncc(C(=O)NO)cn3)CC2)c2ccccc21 [JNJ-26481585] |  | more toxic to bone marrow cells in vitro than to liposarcoma cell lines | 10 |  | 
CC(C)[C@]12O[C@H]1[C@@H]1O[C@]13[C@]1(O[C@H]1C[C@H]1C4=C(CC[C@@]13C)C(=O)OC4)[C@@H]2O [Triptolide] | 10 | more toxic to bone marrow cells in vitro than to liposarcoma cell lines |  | 12 | 
COCCn1c2c([n+](Cc3cnccn3)c1C)C(=O)c1ccccc1C2=O [YM155] |  |  |  |  | 14
